Legend:
[1] = molecular target: Tb-labeled inactive PDGFRβ (Homo sapiens (Human), UniProt P09619); test: PDGFRβ LanthaScreen Assay; assay type: binding; conditions: read-out: PDGFR Lantha IC50
PDGFRβ = PDGFRβ (Rattus norvegicus (Rat), UniProt Q05030); test: PDGFRβ Cellular Assay (PDGFRb P-Y751 HTRF in A10 cells stimulated with PDGF-BB); assay type: cell-based; conditions: read-out: PDGFR Cellular IC50
Method in brief: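 Rat A10 cells, plated overnight, were treated with compound for 3 hours, then stimulated with PDGF-BB (working stock 100 ng/mL in 10% FBS medium). After lysis, PDGFRβ P-Y751 was detected by HTRF.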

VEGFR2, unphosphorylated = VEGFR2, unphosphorylated (Homo sapiens (Human), UniProt P35968); test: VEGFR ADP GLO Assay; assay type: biochemical
Chain of VEGFR2, unphosphorylated (P35968 20-1356): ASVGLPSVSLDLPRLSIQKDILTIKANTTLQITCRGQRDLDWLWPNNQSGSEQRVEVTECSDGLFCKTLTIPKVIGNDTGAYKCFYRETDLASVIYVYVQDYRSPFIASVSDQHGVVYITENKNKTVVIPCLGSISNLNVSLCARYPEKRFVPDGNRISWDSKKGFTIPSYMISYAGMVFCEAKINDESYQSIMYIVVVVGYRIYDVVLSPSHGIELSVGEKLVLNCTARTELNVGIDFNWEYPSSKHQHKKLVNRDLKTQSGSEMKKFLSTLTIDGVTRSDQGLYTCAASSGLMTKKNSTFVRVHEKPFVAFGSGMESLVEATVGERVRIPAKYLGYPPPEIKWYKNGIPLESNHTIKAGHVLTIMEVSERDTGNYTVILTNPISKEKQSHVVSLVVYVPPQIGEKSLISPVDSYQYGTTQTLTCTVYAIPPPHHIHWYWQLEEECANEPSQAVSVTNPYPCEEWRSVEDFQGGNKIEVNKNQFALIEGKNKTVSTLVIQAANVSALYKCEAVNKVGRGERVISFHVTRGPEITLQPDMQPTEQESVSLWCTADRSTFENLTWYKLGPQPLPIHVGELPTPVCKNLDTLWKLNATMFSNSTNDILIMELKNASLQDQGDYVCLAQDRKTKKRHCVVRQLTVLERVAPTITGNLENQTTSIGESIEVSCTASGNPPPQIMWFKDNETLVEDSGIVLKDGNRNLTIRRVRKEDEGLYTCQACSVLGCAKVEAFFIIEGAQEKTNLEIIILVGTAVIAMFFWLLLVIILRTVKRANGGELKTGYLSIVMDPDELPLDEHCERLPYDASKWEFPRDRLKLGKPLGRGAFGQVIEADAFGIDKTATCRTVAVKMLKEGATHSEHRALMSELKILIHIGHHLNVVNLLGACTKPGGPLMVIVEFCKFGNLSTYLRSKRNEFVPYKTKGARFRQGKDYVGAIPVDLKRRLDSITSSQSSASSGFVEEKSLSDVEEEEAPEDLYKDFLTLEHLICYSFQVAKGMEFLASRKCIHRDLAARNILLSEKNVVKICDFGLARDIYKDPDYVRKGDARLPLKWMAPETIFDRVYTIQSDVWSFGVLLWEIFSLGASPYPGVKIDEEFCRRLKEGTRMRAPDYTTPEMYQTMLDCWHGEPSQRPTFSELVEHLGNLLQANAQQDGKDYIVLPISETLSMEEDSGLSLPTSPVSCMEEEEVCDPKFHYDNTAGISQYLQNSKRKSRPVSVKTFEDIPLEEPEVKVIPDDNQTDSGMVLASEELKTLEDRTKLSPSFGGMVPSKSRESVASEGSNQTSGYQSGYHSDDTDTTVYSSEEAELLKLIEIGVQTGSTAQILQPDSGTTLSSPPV

Chain of Tb-labeled inactive PDGFRβ (P09619 33-1106): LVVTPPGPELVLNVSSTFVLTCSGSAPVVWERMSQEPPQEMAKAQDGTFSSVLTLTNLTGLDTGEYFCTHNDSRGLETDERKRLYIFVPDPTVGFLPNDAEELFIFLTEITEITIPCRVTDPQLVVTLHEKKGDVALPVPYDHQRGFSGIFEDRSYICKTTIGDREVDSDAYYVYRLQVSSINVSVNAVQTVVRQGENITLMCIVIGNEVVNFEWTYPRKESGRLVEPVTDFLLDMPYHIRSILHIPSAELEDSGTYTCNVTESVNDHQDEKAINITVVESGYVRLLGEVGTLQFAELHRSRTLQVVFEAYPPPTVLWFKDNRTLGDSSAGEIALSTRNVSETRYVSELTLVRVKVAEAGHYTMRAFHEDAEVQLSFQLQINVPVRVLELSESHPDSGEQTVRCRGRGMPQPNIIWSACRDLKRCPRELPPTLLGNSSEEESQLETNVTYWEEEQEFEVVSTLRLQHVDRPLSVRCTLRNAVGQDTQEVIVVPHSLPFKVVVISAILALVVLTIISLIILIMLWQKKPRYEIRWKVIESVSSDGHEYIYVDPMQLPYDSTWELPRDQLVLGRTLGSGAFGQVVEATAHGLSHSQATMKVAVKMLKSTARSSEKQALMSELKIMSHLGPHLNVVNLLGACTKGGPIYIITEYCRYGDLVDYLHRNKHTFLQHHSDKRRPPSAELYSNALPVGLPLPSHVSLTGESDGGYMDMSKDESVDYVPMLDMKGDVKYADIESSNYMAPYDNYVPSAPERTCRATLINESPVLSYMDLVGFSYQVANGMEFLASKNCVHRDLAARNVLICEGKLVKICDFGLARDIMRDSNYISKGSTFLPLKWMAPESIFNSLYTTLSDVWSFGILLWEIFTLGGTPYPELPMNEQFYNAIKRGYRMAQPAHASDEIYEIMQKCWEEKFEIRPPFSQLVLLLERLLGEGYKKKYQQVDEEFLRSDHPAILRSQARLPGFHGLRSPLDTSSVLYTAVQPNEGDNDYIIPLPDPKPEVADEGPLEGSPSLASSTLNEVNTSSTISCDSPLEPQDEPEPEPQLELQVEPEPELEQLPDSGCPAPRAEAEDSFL
Chain of PDGFRβ (Q05030 32-1097): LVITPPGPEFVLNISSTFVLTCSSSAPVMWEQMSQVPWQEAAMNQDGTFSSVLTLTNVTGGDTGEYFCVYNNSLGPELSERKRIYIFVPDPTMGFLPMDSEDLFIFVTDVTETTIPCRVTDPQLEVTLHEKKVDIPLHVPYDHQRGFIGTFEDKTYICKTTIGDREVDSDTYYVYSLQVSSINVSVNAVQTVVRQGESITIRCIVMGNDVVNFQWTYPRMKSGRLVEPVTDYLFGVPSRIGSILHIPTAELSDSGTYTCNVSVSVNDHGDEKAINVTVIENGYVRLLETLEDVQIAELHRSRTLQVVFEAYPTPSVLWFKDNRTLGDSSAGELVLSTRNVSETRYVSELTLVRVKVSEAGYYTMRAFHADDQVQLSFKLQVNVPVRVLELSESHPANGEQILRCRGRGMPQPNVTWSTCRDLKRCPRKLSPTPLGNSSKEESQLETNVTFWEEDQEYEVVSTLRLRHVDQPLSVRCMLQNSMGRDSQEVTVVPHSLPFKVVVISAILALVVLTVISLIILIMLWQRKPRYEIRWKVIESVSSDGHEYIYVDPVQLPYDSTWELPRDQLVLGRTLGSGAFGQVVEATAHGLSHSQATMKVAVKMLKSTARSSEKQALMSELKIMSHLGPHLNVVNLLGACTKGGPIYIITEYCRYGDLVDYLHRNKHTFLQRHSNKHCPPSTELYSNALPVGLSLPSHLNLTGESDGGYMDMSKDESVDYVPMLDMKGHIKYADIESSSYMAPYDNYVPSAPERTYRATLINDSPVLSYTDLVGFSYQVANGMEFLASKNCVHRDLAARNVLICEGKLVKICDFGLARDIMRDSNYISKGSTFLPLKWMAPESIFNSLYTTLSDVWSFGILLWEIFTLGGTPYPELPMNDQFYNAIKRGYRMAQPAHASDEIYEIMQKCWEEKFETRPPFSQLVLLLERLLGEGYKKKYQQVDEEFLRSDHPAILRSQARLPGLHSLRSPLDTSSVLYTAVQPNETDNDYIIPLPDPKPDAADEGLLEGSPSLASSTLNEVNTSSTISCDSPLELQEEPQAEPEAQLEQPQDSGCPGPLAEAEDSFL

SMILES	IC50 [1] [nM]	IC50 (PDGFRβ) [nM]	IC50 (VEGFR2, unphosphorylated) [nM]
Cc1ncc(C(=O)NCCN2CCCC2(C)C)cc1NC(=O)c1cnn2cc(-c3ccc(=O)[nH]n3)sc12 [Example 141, N-(5-((2-(2,2-dimethylpyrrolidin-1-yl)ethyl)carbamoyl)-2-methylpyridin-3-yl)-2-(6-oxo-1,6-dihydropyridazin-3-yl)pyrazolo[5,1-b]thiazole-7-carboxamide]	18.6	> 3000	> 7500
COCCn1cc(-c2cn3ncc(C(=O)Nc4cc(C(=O)NCCN5CC6CCC5CC6)cnc4C)c3s2)cn1 [Example 142, N-(5-((2-(2-azabicyclo[2.2.2]octan-2-yl)ethyl)carbamoyl)-2-methylpyridin-3-yl)-2-(1-(2-methoxyethyl)-1H-pyrazol-4-yl)pyrazolo[5,1-b]thiazole-7-carboxamide]	4.2	71.7	> 7500
Cc1ncc(C(=O)NCCN2CC3CCC2CC3)cc1NC(=O)c1cnn2cc(-c3cnn(CS(C)(=O)=O)c3)sc12 [Example 143, N-(5-((2-(2-azabicyclo[2.2.2]octan-2-yl)ethyl)carbamoyl)-2-methylpyridin-3-yl)-2-(1-((methylsulfonyl)methyl)-1H-pyrazol-4-yl)pyrazolo[5,1-b]thiazole-7-carboxamide]	5.3	998	> 7500
Cc1ncc(C(=O)NCCN2CC3CCC2CC3)cc1NC(=O)c1cnn2cc(-c3cnn(C4COC4)c3)sc12 [Example 144, N-(5-((2-(2-azabicyclo[2.2.2]octan-2-yl)ethyl)carbamoyl)-2-methylpyridin-3-yl)-2-(1-(oxetan-3-yl)-1H-pyrazol-4-yl)pyrazolo[5,1-b]thiazole-7-carboxamide]	3.6	106	> 7500
Cc1ncc(C(=O)NCCN2CC3CCC2CC3)cc1NC(=O)c1cnn2cc(-c3ccc4oc(=O)[nH]c4c3)sc12 [Example 145, N-(5-((2-(2-azabicyclo[2.2.2]octan-2-yl)ethyl)carbamoyl)-2-methylpyridin-3-yl)-2-(2-oxo-2,3-dihydrobenzo[d]oxazol-5-yl)pyrazolo[5,1-b]thiazole-7-carboxamide]	1.4	407	> 833
CC(=O)Nc1ccnc(-c2cn3ncc(C(=O)Nc4cc(C(=O)NCCN5CC6CCC5CC6)cnc4C)c3s2)c1 [Example 146, N-(5-((2-(2-azabicyclo[2.2.2]octan-2-yl)ethyl)carbamoyl)-2-methylpyridin-3-yl)-2-(4-acetamidopyridin-2-yl)pyrazolo[5,1-b]thiazole-7-carboxamide]	4.3	858	> 7500
CC(=O)Nc1cncc(-c2cn3ncc(C(=O)Nc4cc(C(=O)NCCN5CC6CCC5CC6)cnc4C)c3s2)c1 [Example 147, N-(5-((2-(2-azabicyclo[2.2.2]octan-2-yl)ethyl)carbamoyl)-2-methylpyridin-3-yl)-2-(5-acetamidopyridin-3-yl)pyrazolo[5,1-b]thiazole-7-carboxamide]	6.9	> 2000	> 7500
Cc1ncc(C(=O)NCCN2CC3CCC2CC3)cc1NC(=O)c1cnn2cc(-c3ccncc3)sc12 [Example 148, N-(5-((2-(2-azabicyclo[2.2.2]octan-2-yl)ethyl)carbamoyl)-2-methylpyridin-3-yl)-2-(pyridin-4-yl)pyrazolo[5,1-b]thiazole-7-carboxamide]	4.2	28.9	> 7500
Cc1ncc(C(=O)NCCN2CC3CCC2CC3)cc1NC(=O)c1cnn2cc(-c3cccnc3)sc12 [Example 149, N-(5-((2-(2-azabicyclo[2.2.2]octan-2-yl)ethyl)carbamoyl)-2-methylpyridin-3-yl)-2-(pyridin-3-yl)pyrazolo[5,1-b]thiazole-7-carboxamide]	5	36.2	> 7500
Cc1ncc(C(=O)NCCN2CC3CCC2CC3)cc1NC(=O)c1cnn2cc(-c3cnn(CC(N)=O)c3)sc12 [Example 150, N-(5-((2-(2-azabicyclo[2.2.2]octan-2-yl)ethyl)carbamoyl)-2-methylpyridin-3-yl)-2-(1-(2-amino-2-oxoethyl)-1H-pyrazol-4-yl)pyrazolo[5,1-b]thiazole-7-carboxamide]	5.5	> 2000	> 7500
Cc1ncc(C(=O)NCCN2CC3CCC2CC3)cc1NC(=O)c1cnn2cc(-c3cnn(CC#N)c3)sc12 [Example 151, N-(5-((2-(2-azabicyclo[2.2.2]octan-2-yl)ethyl)carbamoyl)-2-methylpyridin-3-yl)-2-(1-(cyanomethyl)-1H-pyrazol-4-yl)pyrazolo[5,1-b]thiazole-7-carboxamide]	2.8	240	> 7500
Cc1ncc(C(=O)NCCN2CC(F)(F)C2)cc1NC(=O)c1cnn2cc(-c3ccncc3)sc12 [Example 152, N-(5-((2-(3,3-difluoroazetidin-1-yl)ethyl)carbamoyl)-2-methylpyridin-3-yl)-2-(pyridin-4-yl)pyrazolo[5,1-b]thiazole-7-carboxamide]	12.4	66.2	> 7500
Cc1ncc(C(=O)NCCN2CCC3(CC3)C2)cc1NC(=O)c1cnn2cc(-c3ccncc3)sc12 [Example 153, N-(5-((2-(5-azaspiro[2.4]heptan-5-yl)ethyl)carbamoyl)-2-methylpyridin-3-yl)-2-(pyridin-4-yl)pyrazolo[5,1-b]thiazole-7-carboxamide]	18	106	> 7500
Cc1ncc(C(=O)NCCN2CCC(F)(F)CC2)cc1NC(=O)c1cnn2cc(-c3ccncc3)sc12 [Example 154, N-(5-((2-(4,4-difluoropiperidin-1-yl)ethyl)carbamoyl)-2-methylpyridin-3-yl)-2-(pyridin-4-yl)pyrazolo[5,1-b]thiazole-7-carboxamide]	2.4	8.7	> 7500
Cc1ncc(C(=O)NCCN2CC(C)(C)C2)cc1NC(=O)c1cnn2cc(-c3ccncc3)sc12 [Example 155, N-(5-((2-(3,3-dimethylazetidin-1-yl)ethyl)carbamoyl)-2-methylpyridin-3-yl)-2-(pyridin-4-yl)pyrazolo[5,1-b]thiazole-7-carboxamide]	39.4	153	> 7500
Cc1ncc(C(=O)NCCN2CCC(C)(C)C2)cc1NC(=O)c1cnn2cc(-c3ccncc3)sc12 [Example 156, N-(5-((2-(3,3-dimethylpyrrolidin-1-yl)ethyl)carbamoyl)-2-methylpyridin-3-yl)-2-(pyridin-4-yl)pyrazolo[5,1-b]thiazole-7-carboxamide]	9.8	26.2	> 7500
Cc1ncc(C(=O)NCCN2CCC(F)(F)CC2)cc1NC(=O)c1cnn2cc(-c3cccnc3)sc12 [Example 157, N-(5-((2-(4,4-difluoropiperidin-1-yl)ethyl)carbamoyl)-2-methylpyridin-3-yl)-2-(pyridin-3-yl)pyrazolo[5,1-b]thiazole-7-carboxamide]	5.9	21.2	> 7500
Cc1ncc(C(=O)NCCN2CC(C)(C)C2)cc1NC(=O)c1cnn2cc(-c3cccnc3)sc12 [Example 158, N-(5-((2-(3,3-dimethylazetidin-1-yl)ethyl)carbamoyl)-2-methylpyridin-3-yl)-2-(pyridin-3-yl)pyrazolo[5,1-b]thiazole-7-carboxamide]	32.5	156	> 7500
Cc1ncc(C(=O)NCCN2CCC3(CC3)C2)cc1NC(=O)c1cnn2cc(-c3cccnc3)sc12 [Example 159, N-(5-((2-(5-azaspiro[2.4]heptan-5-yl)ethyl)carbamoyl)-2-methylpyridin-3-yl)-2-(pyridin-3-yl)pyrazolo[5,1-b]thiazole-7-carboxamide]	21.6	86.8	> 7500
Cc1ncc(C(=O)NCCN2CCC3(CC3)C2)cc1NC(=O)c1cnn2cc(-c3ccccn3)sc12 [Example 160, N-(5-((2-(5-azaspiro[2.4]heptan-5-yl)ethyl)carbamoyl)-2-methylpyridin-3-yl)-2-(pyridin-2-yl)pyrazolo[5,1-b]thiazole-7-carboxamide]	4.4	25.3	> 7500
Cc1ncc(C(=O)NCCN2CC(C)(C)C2)cc1NC(=O)c1cnn2cc(-c3cn(C)cn3)sc12 [Example 161]	11.9	123	> 7500
Cc1ncc(C(=O)NCCN2CCC3(CC3)C2)cc1NC(=O)c1cnn2cc(-c3cn(C)cn3)sc12 [Example 162, N-(5-((2-(5-azaspiro[2.4]heptan-5-yl)ethyl)carbamoyl)-2-methylpyridin-3-yl)-2-(1-methyl-1H-imidazol-4-yl)pyrazolo[5,1-b]thiazole-7-carboxamide]	7.7	660	> 7500
Cc1ncc(C(=O)NCCN2CCCC2(C)C)cc1NC(=O)c1cnn2cc(-c3cn(C)cn3)sc12 [Example 163, N-(5-((2-(2,2-dimethylpyrrolidin-1-yl)ethyl)carbamoyl)-2-methylpyridin-3-yl)-2-(1-methyl-1H-imidazol-4-yl)pyrazolo[5,1-b]thiazole-7-carboxamide]	3.9	160	> 7500
COCCn1cc(-c2cn3ncc(C(=O)Nc4cc(C(=O)NCCN5CCC(F)(F)CC5)cnc4C)c3s2)cn1 [Example 165, N-(5-((2-(4,4-difluoropiperidin-1-yl)ethyl)carbamoyl)-2-methylpyridin-3-yl)-2-(1-(2-methoxyethyl)-1H-pyrazol-4-yl)pyrazolo[5,1-b]thiazole-7-carboxamide]	3.4	11.4	> 7500
